As usually defined, the Ki is the equilibrium dissociation constant of an inhibitor or competing ligand from its target.

The results in this text go back to patent US20110065632A1, “PHARMACEUTICAL COMPOSITIONS OF SOMATOSTATIN-DOPAMINE CONJUGATES” (priority 2008, published 2011).

Like-named read-outs stand apart in the source and are kept apart here. Numbered stars: 1 amine (or outer) side, 2 acyl side, 3 side chain; on linkers, the order of the positions; unused ones are H or OH. Bridge positions count the residues as written; N and C are the ends. Square brackets hold non-standard residues; d marks the D form. Peptide text beside a SMILES is read from it. * marks the point of attachment. X1 = CCCN1C[C@H](CSCC(=O)*)C[C@@H]2c3cccc4[nH]cc(c34)C[C@H]21; X2 = CN1C[C@H](CSCC(=O)*)C[C@@H]2c3cccc4[nH]cc(c34)C[C@H]21; Pipz(1-CH2CO,4-CH2CH2NH) = O=C(CN1CCN(CCN[*:1])CC1)[*:2]; Abu = CC[C@H](N)C(=O)O; AEEA = NCCOCCOCC(=O)O

For one experiment, the target named is T1, hsst1 (Homo sapiens, UniProt P30872).
T1 construct: expressed in transfected cells
T1 sequence (P30872 whole entry): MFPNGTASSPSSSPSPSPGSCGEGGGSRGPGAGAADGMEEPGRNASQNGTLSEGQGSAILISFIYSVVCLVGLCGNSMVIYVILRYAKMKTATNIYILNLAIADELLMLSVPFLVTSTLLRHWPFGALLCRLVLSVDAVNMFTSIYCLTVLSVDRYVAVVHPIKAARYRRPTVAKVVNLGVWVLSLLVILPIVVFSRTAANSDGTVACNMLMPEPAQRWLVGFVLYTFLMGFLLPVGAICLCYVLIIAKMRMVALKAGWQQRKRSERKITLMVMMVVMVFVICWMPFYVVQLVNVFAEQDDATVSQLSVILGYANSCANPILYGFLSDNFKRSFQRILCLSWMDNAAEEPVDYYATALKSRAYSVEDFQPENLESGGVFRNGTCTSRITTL
Nature of the experiment: Somatostatin receptor radioligand binding assay, hsst1. To be noted: CHO-K1 membranes, [125I-Tyr11]SS-14; read-out: hsst1 Ki. The method, then: (§1) Specificity and selectivity of the somatostatin analogues used to synthesize the somatostatin-dopamine chimers were determined by a radioligand binding assay on CHO-K1 cells stably transfected with each of the SSTR subtypes, as follows. Somatostatin analogs are also described in U.S. Patent Application Publication No. 02210006790. The complete coding sequences of genomic fragments of the SSTR 1 (e.g., Genbank accession No. M81829), SSTR 2 (e.g., Genbank accession No. M81830), SSTR 3 (e.g., Genbank accession No. L07062), and SSTR 4 (e.g., Genbank accession No. AL049651) genes and a cDNA clone for SSTR 5 (e.g., Genbank accession No. D16827) was subcloned into the mammalian expression vector pCMV (Life Technologies, Milano, Italy). Other SSTR sequences are known to the skilled artisan. Clonal cell lines stably expressing SSTR's 1-5 were obtained by transfection into CHO-K1 cells (ATCC, Manassas, Va., USA) using the calcium phosphate co-precipitation method (Davis L, et al., 1994 In: Basic methods in Molecular Biology, 2nd edition, Appleton & Lange, Norwalk, Conn., USA: 611-646). The plasmid pRSV-neo (ATCC) was included as a selectable marker. Clonal cell lines were selected in RPMI 1640 media containing 0.5 mg/mL of G418 (Life Technologies, Milano, Italy), ring cloned, and expanded into culture.
(§2) Membranes for in vitro receptor binding assays were obtained by homogenizing the CHO-K1 cells expressing the SSTR's subtypes in ice-cold 50 mM Tris-HCl and centrifuging twice at 39,000 g (10 min), with an intermediate resuspension in fresh buffer. The final pellets were resuspended in 10 mM Tris-HCl for assay.
(§3) For the SSTR 1, 3, 4, and 5 assays, aliquots of the membrane preparations were incubated 90 minutes at 25° C. with 0.05 nM [^125I-Tyr11]SS-14 in 50 mM HEPES (pH 7.4) containing 10 mg/mL BSA, 5 mM MgCl2, 200 KIU/mL Trasylol, 0.02 mg/mL bacitracin, and 0.02 mg/mL phenylmethylsuphonyl fluoride. The final assay volume was 0.3 mL.
(§4) For the SSTR 2 assay, 0.05 nM [^125I]MK-678 was employed as the radioligand and the incubation time was 90 minutes at 25° C. The incubations were terminated by rapid filtration through GF/C glass microfiber filters (Whatman Co.) (pre-soaked in 0.3% polyethylenimine) using a BRANDEL filtration manifold. Each tube and filter was washed three times with 5 mL aliquots of ice-cold buffer. Specific binding was defined as the total radioligand bound minus that bound in the presence of 1000 nM SS-14 for SSTR 1, 3, 4, and 5, or 1000 nM MK-678 for SSTR2.
(§5) Using the discussed assays, the inhibition constants (Ki) for the five human somatostatin receptors (hSSTR1-hSSTR5) and the dopamine-2 receptor (hUTII and hDA2) were measured for the exemplified somatostatin-dopamine conjugates, as follows: […]

Another experiment deals with T2, hsst2 (Homo sapiens, UniProt P30874).
T2 construct: expressed in transfected cells
T2 sequence (P30874 whole entry): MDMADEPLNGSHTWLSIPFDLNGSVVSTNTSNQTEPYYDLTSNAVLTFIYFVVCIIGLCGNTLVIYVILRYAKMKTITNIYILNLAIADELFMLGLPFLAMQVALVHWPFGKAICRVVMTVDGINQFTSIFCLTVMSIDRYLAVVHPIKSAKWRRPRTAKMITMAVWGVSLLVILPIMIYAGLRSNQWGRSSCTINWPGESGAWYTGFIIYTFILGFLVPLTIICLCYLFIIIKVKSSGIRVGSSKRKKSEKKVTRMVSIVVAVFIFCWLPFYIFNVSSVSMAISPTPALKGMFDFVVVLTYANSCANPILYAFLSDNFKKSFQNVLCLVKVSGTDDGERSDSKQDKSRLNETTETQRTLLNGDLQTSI
Description: Somatostatin receptor radioligand binding assay, hsst2. To be noted: CHO-K1 membranes, [125I]MK-678; read-out: hsst2 Ki. The procedure:
as §1, §2, §4

The next experiment addresses T3, hsst3 (Homo sapiens, UniProt P32745).
T3 construct: expressed in transfected cells
Nature of the experiment: Somatostatin receptor radioligand binding assay, hsst3. The procedure: as §1, §2, §3, §4, §5

For a further experiment, the target named is T4, hUTII (Homo sapiens, UniProt Q9UKP6).
T4 sequence (Q9UKP6 1-389): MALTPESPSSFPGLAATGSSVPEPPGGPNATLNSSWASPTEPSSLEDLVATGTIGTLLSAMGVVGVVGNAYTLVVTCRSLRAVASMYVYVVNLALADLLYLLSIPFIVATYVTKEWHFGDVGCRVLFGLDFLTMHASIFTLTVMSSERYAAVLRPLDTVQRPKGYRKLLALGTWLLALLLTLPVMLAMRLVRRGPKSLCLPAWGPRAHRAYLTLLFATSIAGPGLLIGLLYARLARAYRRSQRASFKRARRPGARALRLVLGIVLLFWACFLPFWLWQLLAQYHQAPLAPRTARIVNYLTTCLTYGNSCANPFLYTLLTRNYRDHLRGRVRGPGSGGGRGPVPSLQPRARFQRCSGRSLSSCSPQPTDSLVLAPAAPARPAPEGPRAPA
Nature of the experiment: hUTII inhibition constant. Type of experiment: binding. The following applies: read-out: hUTII Ki. The method, then: as §5

Another experiment addresses hDA2. Nature of the experiment: Dopamine-2 receptor radioligand binding assay. Set-up: species or system human. The following applies: [3H]spiperone. The procedure: Specificity and selectivity for the dopamine-2 receptor of the dopamine analogues used to synthesize the somatostatin-dopamine chimers may be determined by a radioligand binding assay as follows.
Crude membranes were prepared by homogenization of frozen rat corpus striatum (Zivic Laboratories, Pittsburgh, Pa., USA) in 20 mL of ice-cold 50 mM Tris-HCl with a Brinkman Polytron cell disrupter (setting 6, 15 sec). Buffer was added to obtain a final volume of 40 mL, and the homogenate was centrifuged in a Sorval SS-34 rotor at 39,000 g for 10 minutes at 0-4° C. The resulting supernatant was decanted and discarded. The pellet was rehomogenized in ice-cold buffer, pre-incubated at 37° C. for 10 min, diluted, and centrifuged as before. The final pellet was resuspended in buffer and held on ice for the receptor binding assay.
For assay, aliquots of the washed membrane preparations and test compounds were incubated for 15 minutes (37° C.) with 0.25 nM [^3HI]spiperone (16.5 Ci.mmol, New England Nuclear, Boston, Mass., USA) in 50 mM Tris HCl, 120 mM NaCl, 5 mM KCl, 2 mM CaCl2, 1 mM MgCl2. The final assay volume was 1.0 mL. The incubations were terminated by rapid filtration through GF/B glass fibre filters using a Brandel filtration manifold. Each tube and filter was then washed three times with 5-mL aliquots of ice-cold buffer. Specific binding was defined as the total radioligand bound minus that bound in the presence of 1000 nM (+) butaclamol.
as §5

A further experiment concerns the target T5, hsst5 (Homo sapiens, UniProt P35346).
T5 construct: expressed in transfected cells
Nature of the experiment: Somatostatin receptor radioligand binding assay, hsst5. To be noted: CHO-K1 membranes, [125I-Tyr11]SS-14. The procedure:
as §1, §2, §3, §4

Setting [1] is: CHO-K1 membranes, [125I-Tyr11]SS-14, read-out: hsst3 Ki.

T5 sequence (P35346 whole entry): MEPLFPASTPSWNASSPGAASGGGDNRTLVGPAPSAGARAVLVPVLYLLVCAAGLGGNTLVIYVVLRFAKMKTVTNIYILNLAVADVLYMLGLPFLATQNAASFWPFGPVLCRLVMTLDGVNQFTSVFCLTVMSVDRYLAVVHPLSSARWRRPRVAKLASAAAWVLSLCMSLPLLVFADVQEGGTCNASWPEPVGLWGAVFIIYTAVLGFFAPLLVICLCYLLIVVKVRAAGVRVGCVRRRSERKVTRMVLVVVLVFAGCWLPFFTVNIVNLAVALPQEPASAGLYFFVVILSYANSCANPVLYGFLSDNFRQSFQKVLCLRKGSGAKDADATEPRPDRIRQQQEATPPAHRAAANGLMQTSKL
T3 sequence (P32745 whole entry): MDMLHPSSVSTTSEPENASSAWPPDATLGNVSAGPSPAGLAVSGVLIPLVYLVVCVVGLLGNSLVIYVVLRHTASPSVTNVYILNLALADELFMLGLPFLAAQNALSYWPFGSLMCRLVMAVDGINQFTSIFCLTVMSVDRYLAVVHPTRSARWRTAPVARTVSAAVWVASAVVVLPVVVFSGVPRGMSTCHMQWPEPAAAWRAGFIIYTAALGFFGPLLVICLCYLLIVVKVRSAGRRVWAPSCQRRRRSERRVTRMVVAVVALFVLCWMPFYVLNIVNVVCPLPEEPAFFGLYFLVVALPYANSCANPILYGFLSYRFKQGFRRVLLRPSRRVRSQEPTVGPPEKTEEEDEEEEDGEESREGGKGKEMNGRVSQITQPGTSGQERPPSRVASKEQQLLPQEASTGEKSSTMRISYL

Consider `CCCN1C[C@H](CSCC(=O)N[C@H](Cc2ccccc2)C(=O)N[C@H]2CSSC[C@@H](C(=O)N[C@H](C(N)=O)[C@@H](C)O)NC(=O)[C@H](C(C)C)NC(=O)[C@H](CCCCN)NC(=O)[C@@H](Cc3c[nH]c4ccccc34)NC(=O)[C@H](Cc3ccc(OC(=O)CSC[C@@H]4C[C@@H]5c6cccc7[nH]cc(c67)C[C@H]5N(CCC)C4)c(I)c3)NC2=O)C[C@@H]2c3cccc4[nH]cc(c34)C[C@H]21` [Example 3], for which the Ki at hsst1 was determined as 1000 nM; on hsst2 it was 0.37 nM; on hsst3 (setting [1]), 235 nM; on hUTII, 73.5 nM; at hDA2 it was 16.7 nM.

`CCCN1C[C@H](CSCC(=O)N[C@H](Cc2ccccc2)C(=O)NCCOCCOCC(=O)N[C@H](Cc2ccccc2)C(=O)N[C@H]2CSSC[C@@H](C(=O)N[C@H](C(N)=O)[C@@H](C)O)NC(=O)[C@H](C(C)C)NC(=O)[C@H](CCCCN)NC(=O)[C@@H](Cc3c[nH]c4ccccc34)NC(=O)[C@H](Cc3ccc(O)c(I)c3)NC2=O)C[C@@H]2c3cccc4[nH]cc(c34)C[C@H]21` [Example 4]: the Ki at hsst1 came out at 1000 nM; at hsst2, 0.84 nM; at hsst3 (setting [1]), 397 nM; on hUTII, 83.7 nM; at hDA2, 29.6 nM.

Take `CCCN1C[C@H](CSCC(=O)NCCN2CCN(CC(=O)N[C@H](Cc3ccccc3)C(=O)N[C@H]3CSSC[C@@H](C(=O)N[C@H](C(N)=O)[C@@H](C)O)NC(=O)[C@H](C(C)C)NC(=O)[C@H](CCCCN)NC(=O)[C@@H](Cc4c[nH]c5ccccc45)NC(=O)[C@H](Cc4ccc(O)c(I)c4)NC3=O)CC2)C[C@@H]2c3cccc4[nH]cc(c34)C[C@H]21` [Example 25]: the inhibition constant Ki on hsst1 turned out to be 1000 nM; on hsst2, 1.09 nM; at hsst3 (setting [1]) it was 423 nM; on hUTII, 233 nM; on hDA2, 345 nM.

In the case of `CC[C@@H]1NC(=O)[C@H](CCCCN)NC(=O)[C@@H](Cc2c[nH]c3ccccc23)NC(=O)[C@H](Cc2ccc(O)cc2)NC(=O)[C@@H](NC(=O)[C@@H](Cc2ccc(O)cc2)NC(=O)[C@@H](Cc2ccc(O)cc2)NC(=O)[C@H](CCCCN)NC(=O)CN2CCN(CCNC(=O)CSC[C@@H]3C[C@@H]4c5cccc6[nH]cc(c56)C[C@H]4N(C)C3)CC2)CSSC[C@@H](C(=O)N[C@H](C(N)=O)[C@@H](C)O)NC1=O` [Example 32] (X2-[Pipz(1-CH2CO,4-CH2CH2NH)]K[dY][dY]CY[dW]K[Abu]CT-NH2; disulfide 5-10), the inhibitory constant (Ki) on hsst2 worked out at 0.22 nM; at hsst3, 45.6 nM; at hsst5 (hsst5 Ki), 13.8 nM; at hUTII, 267 nM; on hDA2, 136 nM.

With `CC[C@@H]1NC(=O)[C@H](CCCCN)NC(=O)[C@@H](Cc2c[nH]c3ccccc23)NC(=O)[C@H](Cc2ccc(O)cc2)NC(=O)[C@@H](NC(=O)[C@@H](Cc2ccc(O)cc2)NC(=O)[C@@H](Cc2ccc(O)cc2)NC(=O)[C@H](CCCCN)NC(=O)CSC[C@@H]2C[C@@H]3c4cccc5[nH]cc(c45)C[C@H]3N(C)C2)CSSC[C@@H](C(=O)N[C@H](C(N)=O)[C@@H](C)O)NC1=O` [Example 33] (X2-K[dY][dY]CY[dW]K[Abu]CT-NH2; disulfide 4-9), the Ki on hsst2 was found to be 0.2 nM; on hsst3, 65.1 nM; on hsst5 (hsst5 Ki), 9.82 nM; at hUTII it was 37.7 nM; at hDA2, 206 nM.

For `CC[C@@H]1NC(=O)[C@H](CCCCN)NC(=O)[C@@H](Cc2c[nH]c3ccccc23)NC(=O)[C@H](Cc2ccc(O)cc2)NC(=O)[C@@H](NC(=O)[C@@H](Cc2ccc(O)cc2)NC(=O)[C@@H](Cc2ccc(O)cc2)NC(=O)[C@H](CCCCN)NC(=O)COCCOCCNC(=O)CSC[C@@H]2C[C@@H]3c4cccc5[nH]cc(c45)C[C@H]3N(C)C2)CSSC[C@@H](C(=O)N[C@H](C(N)=O)[C@@H](C)O)NC1=O` [Example 34] ({X2-AEEA}-K[dY][dY]CY[dW]K[Abu]CT-NH2; disulfide 4-9), the Ki came to 0.23 nM at hsst2; 48.4 nM at hsst3; 8.6 nM on hsst5 (hsst5 Ki); 211 nM on hUTII; 114 nM on hDA2.

In the case of `CCCN1C[C@H](CSCC(=O)N[C@@H](CCCCN)C(=O)N[C@H](Cc2ccc(O)cc2)C(=O)N[C@H](Cc2ccc(O)cc2)C(=O)N[C@H]2CSSC[C@@H](C(=O)N[C@H](C(N)=O)[C@@H](C)O)NC(=O)[C@H](CC)NC(=O)[C@H](CCCCN)NC(=O)[C@@H](Cc3c[nH]c4ccccc34)NC(=O)[C@H](Cc3ccc(O)cc3)NC2=O)C[C@@H]2c3cccc4[nH]cc(c34)C[C@H]21` [Example 35] (X1-K[dY][dY]CY[dW]K[Abu]CT-NH2; disulfide 4-9), the inhibition constant Ki at hsst2 came out at 0.27 nM; at hsst3 (setting [1]) it was 109 nM; on hsst5 (read-out: hsst5 Ki), 13.6 nM; at hUTII, 134 nM; on hDA2, 55.8 nM.

In the case of `CCCN1C[C@H](CSCC(=O)NCCN2CCN(CC(=O)NCCN3CCN(CC(=O)N[C@H](Cc4ccccc4)C(=O)N[C@H]4CSSC[C@@H](C(=O)N[C@H](C(N)=O)[C@@H](C)O)NC(=O)[C@H](CC)NC(=O)[C@H](CCCCN)NC(=O)[C@@H](Cc5c[nH]c6ccccc56)NC(=O)[C@H](Cc5ccc(O)cc5)NC4=O)CC3)CC2)C[C@@H]2c3cccc4[nH]cc(c34)C[C@H]21` [Example 36] (X1-[Pipz(1-CH2CO,4-CH2CH2NH)][Pipz(1-CH2CO,4-CH2CH2NH)][dF]CY[dW]K[Abu]CT-NH2; disulfide 4-9), the inhibition constant Ki on hsst2 was found to be 1.67 nM; at hsst3 (setting [1]), 145 nM; at hsst5 (read-out: hsst5 Ki) it was 53.5 nM; at hUTII it was 3090 nM; at hDA2, 328 nM.

Turning to `CC[C@@H]1NC(=O)[C@H](CCCCN)NC(=O)[C@@H](Cc2c[nH]c3ccccc23)NC(=O)[C@H](Cc2ccc(O)cc2)NC(=O)[C@@H](NC(=O)[C@@H](Cc2ccccc2)NC(=O)CN2CCN(CCNC(=O)CSC[C@@H]3C[C@@H]4c5cccc6[nH]cc(c56)C[C@H]4N(C)C3)CC2)CSSC[C@@H](C(=O)N[C@H](C(N)=O)[C@@H](C)O)NC1=O` [Example 38], the Ki at hsst2 amounted to 0.35 nM; at hsst3 (setting [1]), 61.9 nM; on hsst5 (read-out: hsst5 Ki), 28.1 nM; on hUTII, 1190 nM; on hDA2 it was 411 nM.
